Experimental data from patent US11834414B2, “1-methyl-4-[(4-phenylphenyl)sulfonylmethyl]cyclohexyanol and 1-methyl-4-[[4-(2-pyridyl)phenyl]sulfonylmethyl]cyclohexanol compounds and their therapeutic use” (Modern Biosciences Limited, priority 2018, dated 2023).

Assays:
[1] = test system: Thp1 human monocytic cells; test: Thp1 Monocyte ATP Production Assay; assay type: cell-based; details: for IC50: Thp1 cells, 24 hour incubation, ATPLite, 9-point range 10 μM to 10 nM, mean of 2 independent experiments; for potency in the Thp1 monocytic ATP assay (in words): compared to the reference compounds
Experimental: In vitro potency of test compounds was determined by incubation with Thp1 human monocytic cells and subsequent determination of Adenosine TriPhosphate (ATP) levels using firefly luciferase.
ATP is present in all metabolically active cells. When cells lose integrity, their ability to synthesise ATP is rapidly lost. […] See, e.g., Kang et al., 2015; Jiang et al., 2013. Levels of ATP can be monitored using a system based on firefly (Photinus pyralis) luciferase (see, e.g., Auld et al., 2009) using commercially available kits. A system known as
ATPlite™ was using to measure effects of the test compounds on cellular viability in vitro. This one-step assay system is an adenosine triphosphate (ATP) monitoring system based on the production of light caused by the reaction of ATP from the cells with added luciferase and D-luciferin, as illustrated in the reaction scheme below:
The emitted light is proportional to the ATP concentration.
Thp1 cells were plated at 112500 cells per well in 125 μL RPMI-1640 (no glucose) with 1% FBS in 96-well plates. Test compounds were prepared as 100 mM solutions in DMSO. These stock solutions were diluted in DMSO and then diluted 1000× in culture medium (RPMI) before being added directly to the wells so as to give the desired final compound concentration. After a 24 hour incubation at 37° C./5% CO2, ATPLite™ (Perkin Elmer) was added to each well (1:10 v/v, 10 μL). The plate was then incubated at room temperature for 5 minutes and the emitted light was quantified on Viewlux with a measurement time of 0.3 seconds and binning 4×4.
The average results for each test compound were expressed as a percent (%) of the average control value reflecting cell viability. The average values across the concentrations tested were then plotted and the IC50 for was calculated by fitting the data to a 4-parameter IC50 equation using software from Graf it (Erithacus Software). Each experiment was repeated twice and the data are presented as the mean IC50 from both experiments.

CYP3A4 = CYP3A4 (Homo sapiens (Human), UniProt P08684); test: Human Cytochrome P450 Inhibition Assay (Bactosomes); assay type: in vitro ADME; details: recombinant Bactosomes, 10 minutes, 37° C.
CYP3A4, sequence (P08684 whole entry): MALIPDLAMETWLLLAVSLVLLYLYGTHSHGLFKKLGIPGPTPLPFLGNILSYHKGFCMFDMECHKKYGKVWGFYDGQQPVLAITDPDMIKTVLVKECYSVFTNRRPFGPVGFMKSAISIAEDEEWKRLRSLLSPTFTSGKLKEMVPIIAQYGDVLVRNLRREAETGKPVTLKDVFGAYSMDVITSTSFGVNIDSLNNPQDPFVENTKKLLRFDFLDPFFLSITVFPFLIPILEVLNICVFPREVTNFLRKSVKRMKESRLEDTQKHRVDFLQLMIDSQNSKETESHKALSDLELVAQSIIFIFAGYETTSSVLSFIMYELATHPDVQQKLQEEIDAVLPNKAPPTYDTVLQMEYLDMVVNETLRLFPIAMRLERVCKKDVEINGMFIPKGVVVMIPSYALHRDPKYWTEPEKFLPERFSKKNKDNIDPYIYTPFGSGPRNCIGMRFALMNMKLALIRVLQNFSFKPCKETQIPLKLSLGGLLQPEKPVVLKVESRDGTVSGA

CYP2C9 = CYP2C9 (Homo sapiens (Human), UniProt P11712); test: as above; assay type: in vitro ADME; details: recombinant Bactosomes, 10 minutes, 37° C.
CYP2C9, sequence (P11712 whole entry): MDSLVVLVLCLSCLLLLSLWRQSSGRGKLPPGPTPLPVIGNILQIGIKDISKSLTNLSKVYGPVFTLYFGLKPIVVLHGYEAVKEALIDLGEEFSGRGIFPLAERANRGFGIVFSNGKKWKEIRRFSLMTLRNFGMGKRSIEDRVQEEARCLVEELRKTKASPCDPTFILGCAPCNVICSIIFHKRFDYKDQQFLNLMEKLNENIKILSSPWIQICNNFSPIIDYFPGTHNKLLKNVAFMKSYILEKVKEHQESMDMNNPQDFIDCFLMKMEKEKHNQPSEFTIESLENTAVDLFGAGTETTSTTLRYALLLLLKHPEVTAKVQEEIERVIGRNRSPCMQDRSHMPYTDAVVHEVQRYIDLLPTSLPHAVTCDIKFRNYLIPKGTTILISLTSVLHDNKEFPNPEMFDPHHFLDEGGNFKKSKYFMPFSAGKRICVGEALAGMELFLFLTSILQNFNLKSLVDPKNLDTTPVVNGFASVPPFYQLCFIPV

CYP1A2 = CYP1A2 (Homo sapiens (Human), UniProt P05177); test: as above
CYP1A2, sequence (P05177 whole entry): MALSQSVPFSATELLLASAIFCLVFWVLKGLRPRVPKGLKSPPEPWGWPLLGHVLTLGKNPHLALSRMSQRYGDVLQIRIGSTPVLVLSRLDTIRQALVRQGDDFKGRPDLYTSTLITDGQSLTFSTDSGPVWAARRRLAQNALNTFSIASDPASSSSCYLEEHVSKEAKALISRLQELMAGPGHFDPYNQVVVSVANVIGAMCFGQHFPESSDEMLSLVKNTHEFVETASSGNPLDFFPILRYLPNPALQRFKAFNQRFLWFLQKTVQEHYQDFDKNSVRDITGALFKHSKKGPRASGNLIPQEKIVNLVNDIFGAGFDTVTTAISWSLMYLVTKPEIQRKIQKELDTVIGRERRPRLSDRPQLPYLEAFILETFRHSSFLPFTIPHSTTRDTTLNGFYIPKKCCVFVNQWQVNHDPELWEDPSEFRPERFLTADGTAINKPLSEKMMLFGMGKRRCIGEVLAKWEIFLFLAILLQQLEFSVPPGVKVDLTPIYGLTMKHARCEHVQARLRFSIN

CYP2C19 = CYP2C19 (Homo sapiens (Human), UniProt P33261); test: as above; assay type: in vitro ADME; details: recombinant Bactosomes, 10 minutes, 37° C.
CYP2C19, sequence (P33261 whole entry): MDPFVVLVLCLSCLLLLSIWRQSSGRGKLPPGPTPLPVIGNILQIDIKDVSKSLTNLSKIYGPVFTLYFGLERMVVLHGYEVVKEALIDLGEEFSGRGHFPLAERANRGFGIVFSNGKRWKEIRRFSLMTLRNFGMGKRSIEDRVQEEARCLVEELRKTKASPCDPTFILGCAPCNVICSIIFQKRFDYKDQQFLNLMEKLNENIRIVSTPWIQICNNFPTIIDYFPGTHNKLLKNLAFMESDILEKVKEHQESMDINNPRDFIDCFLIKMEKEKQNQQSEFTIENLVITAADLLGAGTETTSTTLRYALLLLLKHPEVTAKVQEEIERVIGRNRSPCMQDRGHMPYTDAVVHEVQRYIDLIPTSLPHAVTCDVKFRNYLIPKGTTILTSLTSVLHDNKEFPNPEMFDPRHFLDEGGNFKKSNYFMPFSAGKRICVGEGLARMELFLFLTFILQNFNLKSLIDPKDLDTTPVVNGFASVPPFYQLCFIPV

[2] = Human hepatocyte stability; assay type: in vitro ADME; details: human, pooled human hepatocytes, human hepatocytes, 1 μM, 60 minute incubation; for hepatocyte CLint at 1 μM: read-out: Human Clint (uL/min/million cells); for half-life at 1 μM: read-out: Human t1/2
Experimental: (§1) Metabolic stability of test compounds was measured by determination of the rate of disappearance of the compound when incubated in the presence of rat or human hepatocytes, a primary source of the most important enzymes (cytochrome P450s) involved in drug metabolism. Study of drug stability in the presence of primary hepatocytes is accepted as a valuable model permitting rapid prediction of in vivo drug stability.
(§2) Rat or human hepatocytes were obtained from a commercial source and viability was assessed using a trypan blue solution prior to use. Test compounds (final concentration 1 μM, 0.1% DMSO, 0.9% acetonitrile) or a marker (diclofenac or diltiazem, final assay concentration 1 μM, 0.1% DMSO, 0.9% acetonitrile) were incubated with pooled hepatocytes for a 60 minute period and samples removed at up to 6 time points and analysed by LC-MS/MS for the presence/amount of test compounds.
(§3) Each compound was incubated for 0, 5, 15, 30, 45, or 60 minutes. The reactions were stopped by the addition of methanol containing an internal standard (1 μM Tolbutamide) at the appropriate time points, mixed and placed at −20° C. for ≥1 hour to quench and allow protein to precipitate. All samples were centrifuged (2500×g, 20 minutes, 4° C.). The aliquots were analysed using LC-MS/MS. Reactions were performed in duplicate at 37° C.
(§4) Data were processed, and the results plotted as In(concentration) vs. time. The elimination rate constant (slope of the regression line, k) was calculated using the following formula, where C(t) is the concentration at time t and C(0) is the starting concentration:
(§5) The half-life (t1/2) was calculated using the following formula: […]
(§6) The intrinsic clearance (CIint) was calculated using the following formula, where [cell] is the hepatocyte concentration in the assay: […]

CYP2D6 = CYP2D6 (Homo sapiens (Human), UniProt P10635); test: Human Cytochrome P450 Inhibition Assay (Bactosomes); assay type: in vitro ADME; details: recombinant Bactosomes, 10 minutes, 37° C.
CYP2D6, sequence (P10635 whole entry): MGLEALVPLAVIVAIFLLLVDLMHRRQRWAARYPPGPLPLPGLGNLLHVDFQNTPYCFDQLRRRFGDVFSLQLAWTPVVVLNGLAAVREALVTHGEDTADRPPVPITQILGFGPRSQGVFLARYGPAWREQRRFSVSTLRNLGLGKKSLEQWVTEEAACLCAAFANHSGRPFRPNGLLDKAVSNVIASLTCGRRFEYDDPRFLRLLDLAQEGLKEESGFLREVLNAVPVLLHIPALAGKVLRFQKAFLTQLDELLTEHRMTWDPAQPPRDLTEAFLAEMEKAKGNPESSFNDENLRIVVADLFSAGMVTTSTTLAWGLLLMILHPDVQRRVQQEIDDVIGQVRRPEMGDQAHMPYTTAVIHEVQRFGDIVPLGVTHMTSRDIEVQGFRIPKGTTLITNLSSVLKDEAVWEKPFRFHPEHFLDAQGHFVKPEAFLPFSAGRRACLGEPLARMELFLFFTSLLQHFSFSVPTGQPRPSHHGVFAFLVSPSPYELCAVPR

Rat hepatocyte stability = assay type: in vitro ADME; details: rat, pooled rat hepatocytes, 60 minute incubation; for hepatocyte CLint at 1 μM: read-out: Rat Clint (μL/min/million cells); for half-life at 1 μM: read-out: Rat t1/2
Experimental: as §1, §2, §3, §4, §5, §6

human hepatocytes = test: Human hepatocyte stability; assay type: in vitro ADME; details: hepatocyte stability, compared to the reference compounds
Experimental: as §1, §2, §3, §4, §5, §6

IC50 ([1]; Homo sapiens, THP-1, 24 h) [µM] | hepatocyte CLint at 1 μM [2] [µL/min/1e6 cells] | half-life at 1 μM [2] [h] | Compound | further results
1.3 |  |  | C[C@]1(O)CC[C@@H](CS(=O)(=O)c2ccc(-c3ccc(C#N)cc3)c(Cl)c2)CC1 [CHMSA-07-A, 2′-chloro-4′-(((cis-4-hydroxy-4-methylcyclohexyl)methyl)sulfonyl)-[1,1′-biphenyl]-4-carbonitrile] | 
4.4 | 4.5 | 4.95 | C[C@]1(O)CC[C@H](CS(=O)(=O)c2ccc(-c3ccc(C#N)cc3F)cc2)CC1 [CHMSA-01-B, 2-Fluoro-4′-(((trans-4-hydroxy-4-methylcyclohexyl)methyl)sulfonyl)-[1,1′-biphenyl]-4-carbonitrile] | 
1.63 | 30.8 | 0.617 | C[C@]1(O)CC[C@@H](CS(=O)(=O)c2ccc(-c3ccc(Cl)cc3C#N)cc2)CC1 [CHMSA-10-A, 4-chloro-4′-((cis-4-hydroxy-4-methylcyclohexyl)methanesulfonyl)-(1,1′-biphenyl)-2-carbonitrile] | hepatocyte CLint at 1 μM (Rat hepatocyte stability): 149 µL/min/1e6 cells; half-life at 1 μM (Rat hepatocyte stability): 0.178 h
2.5 |  |  | C[C@]1(O)CC[C@H](CS(=O)(=O)c2ccc(-c3ccc(C#N)cc3)c(Cl)c2)CC1 [CHMSA-07-B, 2′-Chloro-4′-(((trans-4-hydroxy-4-methylcyclohexyl)methyl)sulfonyl)-[1,1′-biphenyl]-4-carbonitrile] | 
0.5 | 7.8 | 2.87 | C[C@]1(O)CC[C@@H](CS(=O)(=O)c2ccc(-c3ccc(Cl)cc3Cl)cc2)CC1 [CHMSA-11-A, cis-4-(((2′,4′-dichloro-[1,1′-biphenyl]-4-yl)sulfonyl)methyl)-1-methylcyclohexan-1-ol] | IC50 (CYP2C9): > 10 µM; IC50 (CYP1A2): > 10 µM; IC50 (CYP2C19): 25 µM; IC50 (CYP2D6): > 10 µM
1.8 | < 3.1 | > 7.27 | C[C@]1(O)CC[C@@H](CS(=O)(=O)c2ccc(-c3ccc(C#N)cc3)c(F)c2)CC1 [CHMSA-12-A, 2′-fluoro-4′-(((cis-4-hydroxy-4-methylcyclohexyl)methyl)sulfonyl)-[1,1′-biphenyl]-4-carbonitrile] | metabolic stability (in words) (human hepatocytes): exceptionally good stability
2.7 | 6.5 | 3.79 | C[C@]1(O)CC[C@H](CS(=O)(=O)c2ccc(-c3ccc(C#N)cc3Cl)cc2)CC1 [CHMSA-05-B, 2-Chloro-4′-(((trans-4-hydroxy-4-methylcyclohexyl)methyl)sulfonyl)-[1,1′-biphenyl]-4-carbonitrile] | 
0.8 | 13.3 | 1.66 | C[C@]1(O)CC[C@H](CS(=O)(=O)c2ccc(-c3ccc(Cl)cc3Cl)cc2)CC1 [CHMSA-11-B, trans-4-(((2′,4′-Dichloro-[1,1′-biphenyl]-4-yl)sulfonyl)methyl)-1-methylcyclohexan-1-ol] | 
0.8 | 3.3 | 6.61 | C[C@]1(O)CC[C@@H](CS(=O)(=O)c2ccc(-c3ccc(C#N)cc3Cl)cc2)CC1 [CHMSA-05-A, 2-chloro-4′-(((cis-4-hydroxy-4-methylcyclohexyl)methyl)sulfonyl)-[1,1′-biphenyl]-4-carbonitrile] | IC50 (CYP3A4): 26.3 µM; IC50 (CYP2C9): 7 µM; IC50 (CYP1A2): > 50 µM; IC50 (CYP2C19): 36.6 µM; IC50 (CYP2D6): > 50 µM

Further lines, the compound ahead of its results:

Compound | IC50 ([1]; Homo sapiens, THP-1, 24 h) [µM] | hepatocyte CLint at 1 μM [2] [µL/min/1e6 cells] | half-life at 1 μM [2] [h] | further results
C[C@]1(O)CC[C@@H](CS(=O)(=O)c2ccc(-c3ncc(F)cc3F)cc2C(F)(F)F)CC1 [CHMSA-09-A, cis-4-(((4-(3,5-difluoropyridin-2-yl)-2-(trifluoromethyl)phenyl)sulfonyl)methyl)-1-methylcyclohexan-1-ol] | 0.3 | 12.1 | 1.87 | potency in the Thp1 monocytic ATP assay (in words) [1]: excellent potency; IC50 (CYP3A4): > 25 µM; IC50 (CYP2C9): > 25 µM; IC50 (CYP1A2): > 25 µM; IC50 (CYP2C19): 25 µM; IC50 (CYP2D6): > 25 µM
C[C@]1(O)CC[C@H](NS(=O)(=O)c2ccc(-c3ccc(F)cc3F)cc2)CC1 [ABD900, reference compound] |  | 6.3 | 3.67 | IC50 [1]: 1.1 µM; hepatocyte CLint at 1 μM (Rat hepatocyte stability): 79 µL/min/1e6 cells; half-life at 1 μM (Rat hepatocyte stability): 0.298 h
C[C@]1(O)CC[C@H](CS(=O)(=O)c2ccc(-c3ccc(F)cc3F)c(C#N)c2)CC1 [CHMSA-06-B, 2′,4′-Difluoro-4-(((trans-4-hydroxy-4-methylcyclohexyl)methyl)sulfonyl)-[1,1′-biphenyl]-2-carbonitrile] | 4.5 |  |  | 
C[C@]1(O)CC[C@@H](CS(=O)(=O)c2ccc(-c3ccc(F)cc3F)c(C#N)c2)CC1 [CHMSA-06-A, 2′,4′-difluoro-4-(((cis-4-hydroxy-4-methylcyclohexyl)methyl)sulfonyl)-[1,1′-biphenyl]-2-carbonitrile] | 1.8 |  |  | 
C[C@]1(O)CC[C@H](CS(=O)(=O)c2ccc(-c3ncc(F)cc3F)cc2C(F)(F)F)CC1 [CHMSA-09-B, trans-4-(((4-(3,5-Difluoropyridin-2-yl)-2-(trifluoromethyl)phenyl)sulfonyl)methyl)-1-methylcyclohexan-1-ol] | 0.5 | 52.9 | 0.417 | 
C[C@]1(O)CC[C@H](CS(=O)(=O)c2ccc(-c3ccc(C#N)cc3F)cc2C(F)(F)F)CC1 [CHMSA-02-B] | 0.3 | 10.8 | 2.03 | potency in the Thp1 monocytic ATP assay (in words) [1]: excellent potency; IC50 (CYP3A4): > 10 µM; IC50 (CYP2C9): > 10 µM; IC50 (CYP1A2): > 10 µM; IC50 (CYP2C19): > 10 µM; IC50 (CYP2D6): > 10 µM
O=S(=O)(N[C@H]1CC[C@H](O)CC1)c1ccc(-c2ccc(F)cc2F)cc1 [ABD599, reference compound] |  | 22 | 1.87 | 
C[C@]1(O)CC[C@H](CS(=O)(=O)c2ccc(-c3ccc(F)cc3F)cc2C(F)(F)F)CC1 [CHMSA-08-B, trans-4-(((2′,4′-Difluoro-3-(trifluoromethyl)-[1,1′-biphenyl]-4-yl)sulfonyl)methyl)-1-methylcyclohexan-1-ol] | 0.4 | 9.8 | 2.3 | IC50 (CYP2C9): > 25 µM; IC50 (CYP1A2): > 10 µM; IC50 (CYP2C19): > 25 µM; IC50 (CYP2D6): > 10 µM
C[C@]1(O)CC[C@@H](CS(=O)(=O)c2ccc(-c3ccc(F)cc3F)cc2C(F)(F)F)CC1 [CHMSA-08-A, cis-4-(((2′,4′-difluoro-3-(trifluoromethyl)-[1,1′-biphenyl]-4-yl)sulfonyl)methyl)-1-methylcyclohexan-1-ol] | 0.2 | 18 | 1.22 | potency in the Thp1 monocytic ATP assay (in words) [1]: excellent potency
